Earlier results as cited in patent publication US20060217788A1, “Method of using laser induced injury to activate topical prodrugs” (priority 2004, published 2006).
Where no end group is shown, it is not given here. The star is where a group is joined. Palmitoyl = CCCCCCCCCCCCCCCC(=O)*

Tests used:
fibroblast cultures = details: in vitro
[1] = system: wrinkle improvement and photo-aging scores; details: 3 ppm, clinical studies
[2] = system: MMP-1, -2, -3, -7, -9 and -13

## KTTKS [pentapeptide, subfragment of the carboxyl-terminal propeptide of type I collagen]
Fibroblast cultures
  production of matrix components including collagen I, III and fibronectin: increased production

## N-Palmitoyl-Lys-Thr-Thr-Lys-Ser (Palmitoyl-KTTKS) [Pal-KTTKS, pentapeptide conjugated to a 16-carbon fatty acid moiety, from Sederma]
[1]
  irritation or changes in barrier function: without significant irritation or changes in barrier function
  wrinkle improvement and reduction of photo-aging scores: comparable to retinoids

## PLGLAARK [fairly broad spectrum peptide substrate cleavable by MMPs]
[2]
  cleavage by MMPs: cleavable
